Assay results as given in ChEMBL document CHEMBL3120088, “Discovery of selective small molecule type III phosphatidylinositol 4-kinase alpha (PI4KIIIα) inhibitors as anti hepatitis C (HCV) agents” (J Med Chem, 2014).

Legend:
Hepatitis C virus [1] = assay: Antiviral activity against Hepatitis C virus genotype 1b expressed in ET cells after 48 hrs by luciferase reporter gene assay; format: functional, organism-based, Hepacivirus hominis; conditions: for IC50: Hepatitis C virus, genotype 1b, ET, 48 h
[2] = Inhibition of PI3Kdelta (1 to 1044)/6xHis-tagged p85 (1 to 724) (unknown origin) using diC8-PIP2 as substrate preincubated for 30 mins followed by substrate addition measured after 45 to 60 mins; design: species or system Homo sapiens
[3] = Inhibition of PI3Kbeta (1 to 1070)/6xHis-tagged p85 (1 to 724) (unknown origin) using diC8-PIP2 as substrate preincubated for 30 mins followed by substrate addition measured after 45 to 60 mins; design: species or system Homo sapiens
[4] = Inhibition of PI3Kalpha (1 to 1068)/6xHis-tagged p85 (1 to 724) (unknown origin) using diC8-PIP2 as substrate preincubated for 30 mins followed by substrate addition measured after 45 to 60 mins; design: species or system Homo sapiens
[5] = Inhibition of 6xHis-tagged PI4K-beta (13 to 828) 316 to 330 deletion mutant (unknown origin) using D-myo-phosphatidylinositol as substrate preincubated for 30 mins followed by substrate addition measured after 180 mins by luminescence assay; design: species or system Homo sapiens
[6] = molecular target: Phosphatidylinositol 4-kinase alpha (Homo sapiens, UniProt P42356); assay: Inhibition of GST-tagged PI4K-alpha (1 to 2044) (unknown origin) using D-myo-phosphatidylinositol as substrate preincubated for 30 mins followed by substrate addition measured after 180 mins by luminescence assay
[7] = molecular target: Phosphatidylinositol 4,5-bisphosphate 3-kinase catalytic subunit gamma isoform (Homo sapiens, UniProt P48736)
Description: Inhibition of PI3Kgamma (2 to 1102) (unknown origin) using diC8-PIP2 as substrate preincubated for 30 mins followed by substrate addition measured after 45 to 60 mins

Hepatitis C virus [8] = assay: Antiviral activity against Hepatitis C virus genotype 1a expressed in ET cells after 48 hrs by luciferase reporter gene assay; format: functional, organism-based, Hepacivirus hominis, subtype 1a; conditions: et

Phosphatidylinositol 4-kinase alpha, sequence (P42356 whole entry, canonical isoform): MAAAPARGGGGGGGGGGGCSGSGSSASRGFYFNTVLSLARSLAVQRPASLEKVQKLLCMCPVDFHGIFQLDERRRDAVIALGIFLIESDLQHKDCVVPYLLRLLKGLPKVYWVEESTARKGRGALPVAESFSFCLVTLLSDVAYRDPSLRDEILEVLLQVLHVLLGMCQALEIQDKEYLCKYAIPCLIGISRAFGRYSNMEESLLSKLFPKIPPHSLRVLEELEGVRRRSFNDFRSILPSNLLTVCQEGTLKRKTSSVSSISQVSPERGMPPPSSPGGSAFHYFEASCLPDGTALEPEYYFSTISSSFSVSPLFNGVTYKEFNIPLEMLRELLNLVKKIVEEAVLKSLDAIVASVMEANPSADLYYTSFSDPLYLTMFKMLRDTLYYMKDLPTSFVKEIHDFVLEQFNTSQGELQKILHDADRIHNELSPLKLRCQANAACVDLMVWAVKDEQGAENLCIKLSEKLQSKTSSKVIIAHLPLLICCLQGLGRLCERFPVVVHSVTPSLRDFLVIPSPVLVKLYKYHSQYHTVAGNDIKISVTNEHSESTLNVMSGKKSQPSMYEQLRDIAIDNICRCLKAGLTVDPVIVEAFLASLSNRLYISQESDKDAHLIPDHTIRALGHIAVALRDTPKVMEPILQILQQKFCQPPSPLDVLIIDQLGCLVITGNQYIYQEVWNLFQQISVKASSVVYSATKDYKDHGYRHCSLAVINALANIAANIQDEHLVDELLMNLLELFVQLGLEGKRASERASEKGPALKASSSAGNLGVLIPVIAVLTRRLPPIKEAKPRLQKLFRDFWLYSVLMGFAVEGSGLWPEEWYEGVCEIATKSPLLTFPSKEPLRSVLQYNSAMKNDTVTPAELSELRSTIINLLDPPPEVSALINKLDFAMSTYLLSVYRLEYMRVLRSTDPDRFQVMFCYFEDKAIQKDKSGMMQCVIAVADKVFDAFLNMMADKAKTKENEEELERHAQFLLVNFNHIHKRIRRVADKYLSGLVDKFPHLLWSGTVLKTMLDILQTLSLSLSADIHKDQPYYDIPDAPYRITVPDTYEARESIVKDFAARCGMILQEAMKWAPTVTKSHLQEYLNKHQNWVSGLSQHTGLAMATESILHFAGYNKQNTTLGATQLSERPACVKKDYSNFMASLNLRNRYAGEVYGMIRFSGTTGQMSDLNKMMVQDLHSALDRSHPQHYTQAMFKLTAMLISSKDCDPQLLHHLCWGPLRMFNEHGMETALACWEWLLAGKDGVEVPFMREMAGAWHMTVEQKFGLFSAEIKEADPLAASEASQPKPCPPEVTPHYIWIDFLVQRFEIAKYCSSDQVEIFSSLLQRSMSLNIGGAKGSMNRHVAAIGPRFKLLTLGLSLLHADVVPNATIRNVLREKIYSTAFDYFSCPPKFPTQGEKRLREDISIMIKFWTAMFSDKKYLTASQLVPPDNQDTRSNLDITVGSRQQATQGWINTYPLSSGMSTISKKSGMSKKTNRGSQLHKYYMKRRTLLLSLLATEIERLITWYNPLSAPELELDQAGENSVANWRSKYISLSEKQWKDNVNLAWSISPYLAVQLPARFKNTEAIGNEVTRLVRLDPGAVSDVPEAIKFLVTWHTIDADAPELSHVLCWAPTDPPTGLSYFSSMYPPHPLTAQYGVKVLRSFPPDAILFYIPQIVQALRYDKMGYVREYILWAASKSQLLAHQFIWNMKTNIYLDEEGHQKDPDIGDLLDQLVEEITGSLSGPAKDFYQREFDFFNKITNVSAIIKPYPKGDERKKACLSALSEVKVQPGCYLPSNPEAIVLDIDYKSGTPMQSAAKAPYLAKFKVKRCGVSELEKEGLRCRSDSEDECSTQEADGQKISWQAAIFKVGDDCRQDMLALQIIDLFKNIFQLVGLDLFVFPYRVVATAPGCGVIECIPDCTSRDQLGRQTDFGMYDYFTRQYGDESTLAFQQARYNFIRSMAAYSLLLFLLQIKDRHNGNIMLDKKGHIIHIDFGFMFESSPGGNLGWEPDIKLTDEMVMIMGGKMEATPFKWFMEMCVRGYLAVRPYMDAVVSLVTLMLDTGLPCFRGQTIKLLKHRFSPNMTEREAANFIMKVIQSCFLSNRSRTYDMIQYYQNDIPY
Phosphatidylinositol 4,5-bisphosphate 3-kinase catalytic subunit gamma isoform, sequence (P48736 whole entry, canonical isoform): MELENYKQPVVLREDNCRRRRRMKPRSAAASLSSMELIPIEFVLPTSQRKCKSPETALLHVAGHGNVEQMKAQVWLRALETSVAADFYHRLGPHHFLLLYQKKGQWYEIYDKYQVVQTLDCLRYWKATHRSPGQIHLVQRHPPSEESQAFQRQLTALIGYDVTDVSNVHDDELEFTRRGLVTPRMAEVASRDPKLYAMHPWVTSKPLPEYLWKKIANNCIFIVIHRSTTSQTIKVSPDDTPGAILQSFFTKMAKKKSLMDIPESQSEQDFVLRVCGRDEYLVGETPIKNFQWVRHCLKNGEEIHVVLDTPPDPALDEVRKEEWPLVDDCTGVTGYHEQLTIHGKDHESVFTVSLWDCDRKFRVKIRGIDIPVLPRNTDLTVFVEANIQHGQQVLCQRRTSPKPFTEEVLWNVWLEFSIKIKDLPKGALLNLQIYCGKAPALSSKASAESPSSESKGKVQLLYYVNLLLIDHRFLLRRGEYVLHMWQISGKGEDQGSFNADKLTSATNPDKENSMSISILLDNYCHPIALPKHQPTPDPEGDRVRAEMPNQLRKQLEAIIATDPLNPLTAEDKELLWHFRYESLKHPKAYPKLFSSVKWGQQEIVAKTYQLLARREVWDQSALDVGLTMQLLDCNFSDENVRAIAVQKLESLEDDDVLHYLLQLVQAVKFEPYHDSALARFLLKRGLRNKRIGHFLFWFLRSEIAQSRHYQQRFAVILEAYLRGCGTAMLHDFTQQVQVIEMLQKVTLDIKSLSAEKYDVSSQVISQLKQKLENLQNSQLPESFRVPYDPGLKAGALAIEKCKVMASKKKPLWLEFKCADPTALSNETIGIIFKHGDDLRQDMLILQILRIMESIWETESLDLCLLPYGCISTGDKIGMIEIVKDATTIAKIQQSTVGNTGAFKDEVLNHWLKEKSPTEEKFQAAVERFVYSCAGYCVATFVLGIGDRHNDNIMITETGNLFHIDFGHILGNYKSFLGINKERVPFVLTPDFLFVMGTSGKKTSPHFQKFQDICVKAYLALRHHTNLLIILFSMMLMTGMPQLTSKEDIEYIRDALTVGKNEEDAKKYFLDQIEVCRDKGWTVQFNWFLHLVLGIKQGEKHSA

Compound | IC50 (Hepatitis C virus [1]) [nM] | pIC50 [2] | pIC50 [3] | pIC50 [4] | pIC50 [5] | IC50 [6] [nM] | IC50 [7] [nM] | pIC50 (Hepatitis C virus [1]; et) | pIC50 (Hepatitis C virus [8])
COc1ncc(-c2ccc3nc(N)n(-c4cccc(C(F)(F)F)c4)c(=O)c3c2)cc1S(=O)(=O)Nc1ccc(F)cc1F | 79.4 | 6 | 5 | 6 | 5.1 | 50.1 | 1580 |  | 
COc1ccc(-c2ccc3nc(N)n(-c4ccccc4)c(=O)c3c2)cc1NS(=O)(=O)c1ccc(F)cc1F | 31.6 | 5.4 | 4 | 5.8 | 6.8 | 316 | 316 |  | 
COc1ncc(-c2ccc3nc(N)n(-c4ccccc4)c(=O)c3c2)cc1NS(=O)(=O)c1ccc(C#N)cc1 | 0.631 | 7.6 | 6.3 | 6.6 | 7.5 | 1 | 50.1 |  | 
COc1ncc(-c2ccc3nc(N)n(-c4ccccc4)c(=O)c3c2)cc1NS(C)(=O)=O | 20 | 6.6 | 5.3 | 6.4 | 6.1 | 20 | 794 |  | 
COc1ncc(-c2ccc3nc(N)c(-c4ccccc4)cc3c2)cc1NS(=O)(=O)c1ccc(F)cc1F | 10 | 6.9 | 5.9 | 6.5 | 5.8 | 100 | 63.1 |  | 
COc1ncc(-c2ccc3nc(N)n(-c4ccccc4C)c(=O)c3c2)cc1S(=O)(=O)Nc1ccc(F)cc1F | 2.51 | 6.7 | 5.7 | 6.5 | 6.1 | 10 | 316 |  | 
COc1ncc(-c2ccc3nc(N)n(-c4ccccc4)c(=O)c3c2)cc1NS(=O)(=O)c1cccnc1 | 1 | 8.5 | 7 | 8.4 | 7.4 | 0.316 | 6.31 |  | 
COc1ncc(-c2cnc3nc(N)c(-c4ccccc4)cc3c2)cc1NS(=O)(=O)c1ccc(F)cc1F | 126 | 5.7 | 6 | 5.3 | 5.4 | 631 | 6310 |  | 
COc1ncc(-c2ccc3nc(N)n(-c4ccccc4C(F)(F)F)c(=O)c3c2)cc1S(=O)(=O)Nc1ccc(F)cc1F |  | 5.5 | 5 |  | 5.8 | 15.8 | 3160 | 8.5 | 7.7
COc1ncc(-c2ccc3nc(N)n(-c4ccccc4)c(=O)c3c2)cc1NS(=O)(=O)C(C)C | 31.6 | 6.7 | 5.3 | 6.4 | 5.9 | 126 | 501 |  | 
Nc1ncc(-c2ccc3nc(N)n(-c4ccccc4)c(=O)c3c2)cc1NS(=O)(=O)c1ccc(F)cc1F | 15.8 | 6.4 | 5.3 | 6.7 | 7.5 | 0.794 |  |  | 
COc1ncc(-c2ccc3nc(N)n(-c4ccccc4C(C)C)c(=O)c3c2)cc1S(=O)(=O)Nc1ccc(F)cc1F | 6.31 | 5.6 | 4.8 | 5.8 | 6 | 31.6 | 1000 |  | 
COc1ncc(-c2ccc3nc(N)n(-c4ccccc4)c(=O)c3c2)cc1NS(=O)(=O)c1ccccc1C | 0.398 | 7.6 | 6.4 | 7.2 | 6.8 | 1 | 39.8 |  | 
COc1ncc(-c2ccc3nc(N)n(-c4ccccc4)c(=O)c3c2)cc1NS(=O)(=O)c1ccccc1 | 0.501 | 7.7 | 6.3 | 7.3 | 6.7 | 2.51 |  |  | 
COc1ncc(-c2ccc3nc(N)n(-c4ccccc4)c(=O)c3c2)cc1N(C)S(=O)(=O)c1ccc(F)cc1F | > 2000 | 4.8 | 4.5 | 5.5 | 5 | 3980 | 3980 |  | 
CCn1c(N)nc2ccc(-c3cnc(OC)c(S(=O)(=O)Nc4ccc(F)cc4F)c3)cc2c1=O | 20 | 6.8 | 6.4 | 6.9 | 6 | 39.8 | 158 |  | 
COc1ncc(-c2cc3cc(-c4ccccc4)c(N)nc3cn2)cc1NS(=O)(=O)c1ccc(F)cc1F | 158 | 6.2 | 5.8 | 5.7 | 5 | 200 | 1260 |  | 
COc1ncc(-c2ccc3nc(N)c(-c4ccccc4)cc3n2)cc1NS(=O)(=O)c1ccc(F)cc1F | > 5010 | 4.9 | 4.2 | 4.2 | 5 | 7940 | 25100 |  | 
COc1ncc(-c2ccc3ncnc(N4CCOCC4)c3c2)cc1NS(=O)(=O)c1ccc(F)cc1F |  | 8.9 | 8.7 | 8.9 | 7.7 | 1.58 | 2.51 |  | 
COc1ncc(-c2ccc3nc(N)n(-c4ccccc4)c(=O)c3c2)cc1S(=O)(=O)Nc1ccc(F)cc1F | 5.01 | 6.3 | 4.9 | 6 | 5.5 | 6.31 | 1260 |  | 
COc1ncc(-c2ccc3nc(N)n(-c4ccccc4)c(=O)c3c2)cc1NS(=O)(=O)c1cccc(C)c1 | 1.26 | 7.3 | 6.3 | 7.1 | 6.4 | 3.98 | 50.1 |  | 
COc1ncc(-c2ccc3nc(N)n(-c4ccccc4)c(=O)c3c2)cc1NS(=O)(=O)c1ccc(C)cc1 | 3.16 | 8 | 5.6 | 7.3 | 6.2 | 15.8 |  |  | 
COc1ncc(-c2ccc3nc(N)c(-c4ccccc4)nc3c2)cc1NS(=O)(=O)c1ccc(F)cc1F | 15.8 | 7.8 | 6.7 | 7.1 | 6.9 | 5.01 | 7.94 |  | 
COc1ncc(-c2ccc3nc(N)n(C4CCOCC4)c(=O)c3c2)cc1S(=O)(=O)Nc1ccc(F)cc1F | 3.98 | 6.6 | 5.4 | 6.6 | 5.9 | 10 | 501 |  | 
COc1ncc(-c2ccc3nc(N)n(-c4ccc(C(F)(F)F)cc4)c(=O)c3c2)cc1S(=O)(=O)Nc1ccc(F)cc1F | 10 | 6.4 | 4.6 | 6.1 | 5 | 50.1 | 398 |  | 
